# Assay results reported in PubChem BioAssay (NCI).
#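 48-hour exposure; five concentrations; linearly interpolated endpoints. Here, GI50 denotes the concentration required for 50% inhibition of growth. TGI: concentration producing complete growth inhibition.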
# What was measured:
# Test in all cases: inhibition of tumour cell growth, NCI panel, 48 h
# HCC-2998 colon = tested on: HCC-2998 colon
# OVCAR-3 ovarian = tested on: OVCAR-3 ovarian
# SW-620 colon = tested on: SW-620 colon
# SK-MEL-2 melanoma = tested on: SK-MEL-2 melanoma
# SNB-19 CNS = tested on: SNB-19 CNS
# HCT-116 colon = tested on: HCT-116 colon
# LOX IMVI melanoma = tested on: LOX IMVI melanoma
# HT29 colon = tested on: HT29 colon
# OVCAR-5 ovarian = tested on: OVCAR-5 ovarian
# COLO 205 colon = tested on: COLO 205 colon
# SK-MEL-28 melanoma = tested on: SK-MEL-28 melanoma
# HL-60(TB) leukemia = tested on: HL-60(TB) leukemia
# RXF 393 renal = tested on: RXF 393 renal
# T-47D breast = tested on: T-47D breast
# SK-MEL-5 melanoma = tested on: SK-MEL-5 melanoma
# MCF7 breast = tested on: MCF7 breast
# A549 NSCLC = tested on: A549 NSCLC
# NCI-H23 lung = tested on: NCI-H23 lung
# SN12C renal = tested on: SN12C renal
# NCI-H460 lung = tested on: NCI-H460 lung
# CCRF-CEM leukemia = tested on: CCRF-CEM leukemia
# 786-0 renal = tested on: 786-0 renal
# DU-145 prostate = tested on: DU-145 prostate
# HOP-92 NSCLC = tested on: HOP-92 NSCLC
# EKVX NSCLC = tested on: EKVX NSCLC
# HCT-15 colon = tested on: HCT-15 colon
# OVCAR-4 ovarian = tested on: OVCAR-4 ovarian
# SF-295 CNS = tested on: SF-295 CNS
# UACC-257 melanoma = tested on: UACC-257 melanoma
compound,measurement,setting,value
CC(C)(C)Nc1nc2c(OCCc3ccccc3)cccn2c1-c1ccccc1Cl,GI50,HCC-2998 colon,3.51 µM
same,TGI,HCC-2998 colon,12.5 µM
same,GI50,OVCAR-3 ovarian,2.93 µM
same,TGI,OVCAR-3 ovarian,9.75 µM
same,GI50,SW-620 colon,4.91 µM
same,TGI,SW-620 colon,17.7 µM
same,GI50,SK-MEL-2 melanoma,2.72 µM
same,TGI,SK-MEL-2 melanoma,8.33 µM
same,GI50,SNB-19 CNS,3.35 µM
same,TGI,SNB-19 CNS,13.1 µM
same,GI50,HCT-116 colon,4.01 µM
same,TGI,HCT-116 colon,15.3 µM
same,GI50,LOX IMVI melanoma,4.08 µM
same,TGI,LOX IMVI melanoma,15.8 µM
same,GI50,HT29 colon,4.62 µM
same,TGI,HT29 colon,30.1 µM
same,GI50,OVCAR-5 ovarian,11.9 µM
same,TGI,OVCAR-5 ovarian,24.7 µM
same,GI50,COLO 205 colon,3.49 µM
same,TGI,COLO 205 colon,10.6 µM
same,GI50,SK-MEL-28 melanoma,3.45 µM
same,TGI,SK-MEL-28 melanoma,13.1 µM
same,GI50,HL-60(TB) leukemia,2.42 µM
same,TGI,HL-60(TB) leukemia,5.68 µM
same,GI50,RXF 393 renal,9.26 µM
same,TGI,RXF 393 renal,22.3 µM
same,GI50,T-47D breast,2.35 µM
same,TGI,T-47D breast,17.1 µM
same,GI50,SK-MEL-5 melanoma,2.01 µM
same,TGI,SK-MEL-5 melanoma,4.43 µM
same,GI50,MCF7 breast,3.35 µM
same,TGI,MCF7 breast,14.7 µM
same,GI50,A549 NSCLC,4.88 µM
same,TGI,A549 NSCLC,27.1 µM
same,GI50,NCI-H23 lung,3.67 µM
same,TGI,NCI-H23 lung,13.8 µM
same,GI50,SN12C renal,3.03 µM
same,TGI,SN12C renal,12.7 µM
same,GI50,NCI-H460 lung,3.76 µM
same,TGI,NCI-H460 lung,13.4 µM
same,GI50,CCRF-CEM leukemia,3.56 µM
same,TGI,CCRF-CEM leukemia,16 µM
same,GI50,786-0 renal,4.84 µM
same,TGI,786-0 renal,18.1 µM
same,GI50,DU-145 prostate,7.9 µM
same,TGI,DU-145 prostate,24.6 µM
same,GI50,HOP-92 NSCLC,2.36 µM
same,TGI,HOP-92 NSCLC,7.93 µM
same,GI50,EKVX NSCLC,3.19 µM
same,TGI,EKVX NSCLC,12.8 µM
same,GI50,HCT-15 colon,4.12 µM
same,TGI,HCT-15 colon,15.9 µM
same,GI50,OVCAR-4 ovarian,3.61 µM
same,TGI,OVCAR-4 ovarian,14.9 µM
same,GI50,SF-295 CNS,3.19 µM
same,TGI,SF-295 CNS,12.6 µM
same,GI50,UACC-257 melanoma,3.52 µM
same,TGI,UACC-257 melanoma,13 µM
